Measured values reported in US10519323B2, “Antimicrobial coatings” (AGENCY FOR SCIENCE, TECHNOLOGY AND RESEARCH, priority 2015, dated 2019).
Values after ≈ are worked out from the molar mass of the structure shown.

Tests used:
E. coli = assay: Minimal inhibitory concentration (MIC) of powders against E. coli; format: cell-based, Escherichia coli; conditions: * = tested chemical formed precipitate in TSB medium
Experimental: (§1) The minimal inhibitory concentration (MIC) of ZIF-L powders synthesized from a solution with a 2-Me-Im:Zn ratio of 7:1 was tested against E. coli, S. aureus and C. albicans. The same test was conducted for ZIF-8 powders, 2-Me-Im alone and Zn(NO3)2.4H2O alone. The MIC values in mg/mL are tabulated below.

S. aureus = assay: Minimal inhibitory concentration (MIC) of powders against S. aureus; format: cell-based, Staphylococcus aureus; conditions: * = tested chemical formed precipitate in TSB medium
Experimental: as §1

C. albicans = assay: Minimal inhibitory concentration (MIC) of powders against C. albicans; format: cell-based, Candida albicans
Experimental: as §1

Structure (SMILES)	MIC (E. coli; Escherichia coli) [mg/mL]	MIC (S. aureus; Staphylococcus aureus) [mg/mL]	MIC (C. albicans; Candida albicans) [mg/mL]	MIC, E. coli (E. coli)	MIC, S. aureus (S. aureus)	MIC, C. albicans (C. albicans) [mg/mL]
Cc1ncc[nH]1 [2-Me-Im, 2-methylimidazole]	12.5 (≈ 152 mM)	25 (≈ 304 mM)	6.2 (≈ 75.5 mM)			
O.O.O.O.O=[N+]([O-])[O-].O=[N+]([O-])[O-].[Zn+2] [Zn(NO3)2•4H2O, Zn(NO3)2.4H2O]				3.1* mg/mL	>50* mg/mL	0.8
